Laboratory results published in patent US20130122127A1, “Extract of Coptidis Rhizoma and novel use thereof in treating respiratory disease” (AHN-GOOK PHARMACEUTICAL CO., LTD., priority 2008, published 2013).
Values joined by “and” are separate entries in the source; they are usually repeats but may differ in a detail not shown here. Identical values can stand only once.

Experiments:
peritoneal mast cell = experiment: Antihistamine activity, compound 48/80-induced histamine release from peritoneal mast cells of ovalbumin-sensitized rat; assay type: cell-based; details: oral dosage 5 mg/kg
Protocol: In order to measure antihistamine activity of Coptidis Rhizoma extract of Examples 1-1 to 1-3, experiment was conducted using Honuchi et al. method (Masako Honuchi and Yoshiyuki Seyama, J. Health Sci., 52(6), 711˜717, 2006., Naoki Inagaki et al. Biol. Pharm. Bull. 24(7), 829˜834, 2001.) in the following procedure.
Antihistamine effect was measured using peritoneal mast cell of a male rat (7-weeks age, Sam tako BioKorea) sensitized with ovalbumin As positive control, Ketotifen (Sigma) was used. To a rat sensitized with ovalbumin, Ketotifen was orally administered at a concentration of 5 mg/kg, and test drugs were orally administered respectively at a concentration of 200 mg/kg for 4 days, and then, peritoneal mast cells were separated. The separated peritoneal mast cells (2×10^5 cells/ml) were treated with Ketotifen at concentrations of 0.01 mg/ml, 0.1 mg/ml, and 1.0 mg/ml, and test drugs at concentrations of 0.1 mg/ml, 1.0 mg/ml, and 10 mg/ml. Finally, the mast cells were treated with compound 48/80 (Sigma) which activates non-immunological histamine release at a concentration of 10 μg/ml. At this time, the amount of histamine released from mast cells was quantified to examine whether the test materials suppress release of histamine from the mast cells. The relative amount of histamine released from mast cell in a rat to which no drug was administered was measured, of which results are presented in the following Table 5.
In order to measure antihistamine activities of 5 sub-fractions prepared in the above Example 1-4, the same experiment was conducted as the above Experiment 3-3, of which results are presented in the following Table 8.
In order to measure antihistamine effect of ivy leaf extract, and combined extract of Coptidis Rhizoma with ivy leaf (Examples 2-1 to 2-11) prepared in Example 2 in mast cell, experiment was conducted by the same method as described in [Experiment method] in Experiment 3-3 using Honuchi et al. method (Masako Honuchi and Yoshiyuki Seyama, J. Health Sci., 52(6), 711˜717, 2006., Naoki Inagaki et. Biol. Pharm. Bull. 24(7), 829˜834, 2001.), of which results are presented in the following Table 13.

male mouse = experiment: Expectorant activity, phenol red secretion method in mouse; assay type: in vivo
Protocol: In order to measure expectorant activities of Coptidis Rhizoma extracts of the Examples 1-1 to 1-3, experiment was conducted using Engler et al. method ([…]. Pharmacol. Moth. 11, 151 157, 1984, Bao-quin Lin et., Pulmonary Pharmacology & Therapeutics 21, 259 263, 2008.) in the following procedure. A positive control drug (ambroxol, Sigma) and test drugs (Coptidis Rhizoma extract of Examples 1-1 to 1-3) were orally administered to a male mouse (8-weeks age, Sam tako BioKorea), and after 30 minutes, 500 mg/kg of phenol red was intraperitoneally injected (phenol red was dissolved in saline). After 30 minutes, the mouse was anesthetized with diethyl ether, exsanguinated by cutting the abdominal aorta, and then the whole trachea was resected. […] In order to evaluate expectorant activities of the combined extract and single extract prepared in the Example 2 (2-1 to 2-11), experiment was conducted by the same method as described in [Experiment method] of Experiment 3-1, using Engler, et al. method ([…]. Pharmacol. Moth. 11, 151 157, 1984., Bao-quin Lin et., Pulmonary Pharmacology & Therapeutics 21, 259 263, 2008.), of which results are shown in FIG. 2.

[1] = system: OVA-sensitized Balb/c mouse; experiment: Murine asthma model: airway hyper-responsiveness (AHR) to methacholine; assay type: in vivo; details: 30 mg/kg oral, Day 14-20
Protocol: (§1) And, for evaluation, examination of airway hyper-responsiveness (AHR) for methacholine, examination of IgE value in blood plasma, examination of the number of cells and the distribution of white blood cells in bronchoalveolar lavage fluid (BALF), observation of pulmonary tissue, and RT-PCR (IL-1β, IL-4, IL-13r2a) were conducted.
(§2) To a Balb/c mouse (18˜21 g, Orientbio Inc.), an ovalbumin (OVA, Sigma) solution prepared for intraperitoneal injection was intraperitoneally administered in an amount of 500 ul (20 ug as OVA) per one mouse at Day 0 and Day 7, and it was sensitized with a solution prepared for OVA inhalation using a nebulizer (NE-U17, OMRON Co. Ltd, Japan) and then, the prepared 5% OVA solution was inhaled everyday for 30 minutes from Day 14 to Day 20. As positive control drug, 30 mg/kg of montelukast sodium was used, and all the experiment materials were used in an amount of 200 mg/kg. And, positive control drug and the experiment materials were orally administered everyday one hour before OVA inhalation for 7 days of from Day 14 to Day 20 after sensitization, and then, experiments were conducted by the following evaluation items.
24 hours after final inhalation of OVA (at Day 21), the mouse was put in a whole body plethysmograph (BUXCO, USA), each 0.4 ml of methacholine solutions of concentrations of 0, 10 and 20 mg/ml were taken to introduce in an aerosol, and inhaled to the mouse respectively for 3 minutes. And, Penh were measured for 4 minutes from the inhalation time, and the average value was set as Penh (enhanced pause) at corresponding dosage of methacholine.

immunoglobulin E (IgE) = experiment: Murine asthma model: IgE value in blood plasma (ELISA); assay type: in vivo, mouse; details: Day 21, 30 mg/kg oral
Protocol: as §1
(§3) To a Balb/c mouse (18˜21 g, Orientbio Inc.), an ovalbumin (OVA, Sigma) solution prepared for intraperitoneal injection was intraperitoneally administered in an amount of 500 ul (20 ug as OVA) per one mouse at Day 0 and Day 7, and it was sensitized with a solution prepared for OVA inhalation using a nebulizer (NE-U17, OMRON Co. Ltd, Japan) and then, the prepared 5% OVA solution was inhaled everyday for 30 minutes from Day 14 to Day 20. As positive control drug, 30 mg/kg of montelukast sodium was used, and all the experiment materials were used in an amount of 200 mg/kg. […]
For the animal measured according to 1), about 0.05 ml of blood was collected by orbital blood sampling and centrifuged, and the obtained plasma was divided into two parts and diluted to 1:10 to examine immunoglobulin E (IgE) value in plasma through IgE enzyme linked immunosorbent assay (ELISA; IgE ELISA kit for mouse, ME-151, SHIBAYAGI Co., Ltd., JAPAN).

[2] = system: neutrophils and eosinophils in BALF; experiment: Murine asthma model: number of cells in bronchoalveolar lavage fluid (BALF); assay type: in vivo, mouse; details: Day 22, 30 mg/kg oral
Protocol: as §1, §3
To the animals whose blood was sampled according to 2), sodium pentothal (50 mg/kg) was injected intraperitoneally to anesthetize it. […] For the suspension, the numbers of total leucocytes, neutrophils, eosinophils and lymphocytes were measured using automated hematology analyzers (Advia 120 coulter counter, BAYER, Germany).

pulmonary tissue = experiment: Murine asthma model: observation of pulmonary tissue; assay type: in vivo, mouse; details: score 1=No, 2=slight, 3=thin, 4=moderate, 5=thick; 30 mg/kg oral
Protocol: as §1, §2
The left lung fixed with a nipper was taken off and fixed with a 10% formalin solution for one day, and then, paraffin-penetrated tissue using a tissue processor was cut to a thickness of 3-4 um using a microtome to make tissue fragments. […]

IL-1β = experiment: Murine asthma model: RT-PCR of lung tissue, IL-1β; assay type: in vivo, mouse; details: band density divided by actin density, 30 mg/kg oral
Protocol: as §1, §3
(§4) Right pulmonary tissue was rapidly taken off and stored at −80° C. before experiment. RNA was separated from the tissue using RNA-Bee (Tel-Test Inc. USA), and the separated RNA was quantified at 260 nm using a spectrometer, and then, 4 ug of RNA and Oligo dT 2 ul (Promega), DEPC water were added to make 10 ul and the mixture was reacted at 65 r for 5 minutes. […]

IL-4 = experiment: Murine asthma model: RT-PCR of lung tissue, IL-4; assay type: in vivo, mouse; details: band density divided by actin density, 30 mg/kg oral
Protocol: as §1, §3, §4

IL-13r2a = experiment: Murine asthma model: RT-PCR of lung tissue, IL-13r2a; assay type: in vivo, mouse; details: band density divided by actin density, 30 mg/kg oral
Protocol: as §1, §3, §4

male guinea pig = experiment: Antitussive activity, citric acid-induced cough in guinea pig; assay type: in vivo; details: oral 50 mg/kg, 0.2M citric acid
Protocol: In order to measure antitussive activity of Coptidis Rhizoma extracts of Examples 1-1 to 1-3, experiment was conducted using Tanaka et al. method (Motomu Tanaka and Kei Maruyama., J. Pharmacol. Sci. 93, 465˜470, 2003., Daoui, Cognon, Naline et., Am. J. Respir. Crit. Care. Med. 158, 42˜48, 1998) in the following procedure.
A test drug was orally administered to a male guinea pig (6-weeks age, Sam tako BioKorea), and after 1 hour, the guinea pig was put in a plethysmograph chamber (Buxco, U.S.A.), and then, a cough inducer, citric acid (Sigma) was nebulized to induce cough. As positive control, theobromine (Sigma) which is used as an antitussive was used. And, the guinea pig was exposed to 0.2M citric acid for 10 minutes, and the number of coughs occurred was measured for 15 minutes.
In order to measure antitussive activities of 5 sub-fractions prepared in the above Example 1-4, experiment for antitussive activity was conducted by the same method as Experiment 3-2, of which results are presented in the following Table 7. […]

In the case of `CN1CCC(=C2c3ccccc3CC(=O)c3sccc32)CC1` [Ketotifen], the “Histamine release amount (%)” value (peritoneal mast cell; mast cell treatment 0 mg/ml) is reported as 43% and 44%, the “Histamine release amount (%)” value (peritoneal mast cell; mast cell treatment 0.01 mg/ml) is reported as 41% and the “Histamine release amount (%)” value (peritoneal mast cell; mast cell treatment 0.1 mg/ml) is reported as 32%. The “Histamine release amount (%)” value (peritoneal mast cell; mast cell treatment 1.0 mg/ml) was 18% and 19%.
With `Nc1c(Br)cc(Br)cc1CN[C@H]1CC[C@H](O)CC1` [Ambroxol, ambroxol] the “Capacity to discharge sputum (%)” value (male mouse; oral 250 mg/kg) was 34% and the “Capacity to secrete sputum (%)” value (male mouse; oral 250 mg/kg, 250 mg/kg) was 32% and 30%.
In the case of `CC(C)(O)c1ccccc1CC[C@@H](SCC1(CC(=O)O)CC1)c1cccc(/C=C/c2ccc3ccc(Cl)cc3n2)c1` [montelukast, montelukast sodium], the “Penh value according to methacholine dosage” value (from here on “Penh value according”) ([1]; methacholine 0 mg/ml) is reported as 1.5 ± 0.2, the “Penh value according” value ([1]; methacholine 10 mg/ml) is reported as 8.4 ± 2.4 and the “Penh value according” value ([1]; methacholine 20 mg/ml) is reported as 19.8 ± 5.4. For the same compound, the “IgE level” value (immunoglobulin E (IgE)) was 13.7 ± 5.7 ng/mL, the “WBC EOS (eosinophil)” value [2] was 466.0 ± 207.0 ×10^3 cells and the “WBC NEU (neutrophil)” value [2] was 22.3 ± 7.2 ×10^3 cells. For the same compound, the “Microscope observation: Degree of infiltration of inflammatory cells” value (pulmonary tissue) was 3.7 ± 0.5, the “Microscope observation: Degree of occlusion of bronchus” value (pulmonary tissue) was 3.5 ± 0.5 and the “Degree of cytokine expression IL-1β” value (IL-1β) was 0.51 ± 0.26. The “Degree of cytokine expression IL-4” value (IL-4) was 1.47 ± 0.48 and the “Degree of cytokine expression IL-13r2a” value (IL-13r2a) was 0.37 ± 0.31.
With `Cn1cnc2c1c(=O)[nH]c(=O)n2C` [Theobromine, theobromine] the “Capacity to suppress cough (%)” value (male guinea pig) was 57% and 56%.
`COc1ccc2cc3[n+](cc2c1OC)CCc1cc2c(cc1-3)OCO2` [Berberine, berberine] was tested, and the “Capacity to discharge sputum (%)” value (male mouse; oral 125 mg/kg) was 39%.
